Reference: patent publication US5208251A, “Styryl pyrazoles, isoxazoles and analogs thereof having activity as 5-lipoxygenase inhibitors, pharmaceutical compositions and methods of use therefor” (Warner-Lambert Company, priority 1989, dated 1993)

What follows are compounds tested on cyclooxygenase (assay: ARBC whole cell cyclooxygenase assay (RBL-1 cells, PGF2α)). Details: RBL-1 intact cell cyclooxygenase, PGF2α by RIA, A23187 5 μM.
Type: cell-based, rat
Method: ARBL/ARBC Whole Cell 5-Lipoxygenase and Cyclooxygenase Assays
The rat basophilic leukemia cell line (RBL-1) was obtained from the American Type Culture Collection (Rockville, Md.).
Radioimmuno assay (RIA) kits of LTB4 and PGF2α were obtained from Amersham (Arlington Heights, IL) and Seragen (Boston, Mass.) respectively.
All tissue culture media were obtained from GIBCO (Grand Island, N.Y.).
RBL-1 cells were grown in culture (suspension) in Eagle's minimum essential medium supplemented with fetal bovine serum and 1:100 antibiotic-antimycotic mixture at 37° C. in an incubator supplied with air-5% carbon dioxide. Cells were harvested by centrifugation. They were washed with cold phosphate buffered saline pH 7.4 (PBS; NaCl, 7.1 g; Na2 HPO4, 1.15 g; KH2 PO4, 0.2 g; and KCl, 0.2 g/L). […] Calcium ionophore A23187 (5 μM) was added and cells were incubated for seven minutes at 37° C. The reaction was stopped by chilling the tubes in ice for ten minutes. Cells were separated by centrifugation and the supernatant was stored at -20° . Aliquots (100 μl) were analyzed for LTB4 and PGF2α using radioimmuno assay kits as provided by the supplier.

IC50 [µM]	SMILES
> 30	Cc1cc(C=Cc2cc(C(C)(C)C)c(O)c(C(C)(C)C)c2)nn1CC(=O)O [Example 10Q, 3-[β-(4'-Hydroxy-3',5'-di-t-butylphenyl)ethenyl]-5-methyl-1H-pyrazole-1-acetic acid]
> 20	Cc1cc(C(=Cc2cc(C)c(O)c(C)c2)C(=O)O)on1 [Example 52, 5-[α-carboxy-β-(4'-hydroxy-3',5'-dimethylphenyl)ethenyl]-3-methylisoxazole]
> 30	CCOC(=O)Cn1nc(C)cc1/C=C/c1cc(OC)c(O)c(OC)c1 [Example 10D, (E)-5-[β-(4'-Hydroxy-3',5'-dimethoxyphenyl)ethenyl]-3-methyl-1H-pyrazole-1-acetic acid, ethyl ester]
> 30	COc1cc(C=Cc2cc(C)n(CC(=O)O)n2)cc(OC)c1O [Example 10N, 3-[β-(4'-Hydroxy-3',5'-dimethoxyphenyl)ethenyl]-5-methyl-1H-pyrazole-1-acetic acid]
> 30	COc1cc(C=Cc2cc(C)nn2CC(=O)O)cc(OC)c1O [Example 10M, 5-[β-(4'-Hydroxy-3',5'-dimethoxyphenyl)ethenyl]-3-methyl-1H-pyrazole-1-acetic acid]
> 30	COC(=O)Cn1nc(C=Cc2cc(OC)c(O)c(OC)c2)cc1C [Example 10H, 3-[β-(4'-Hydroxy-3',5'-dimethoxyphenyl)ethenyl]-5-methyl-1H-pyrazole-1-acetic acid, methyl ester]
> 30	COC(=O)Cn1nc(C)cc1C=Cc1cc(C(C)(C)C)c(O)c(C(C)(C)C)c1 [Example 10G-2]
> 30	Cc1cc(C=Cc2cc(C(C)(C)C)c(O)c(C(C)(C)C)c2)n(CC(=O)O)n1 [Example 10P, 5-[β-(4'-Hydroxy-3',5'-di-t-butylphenyl)ethenyl]-3-methyl-1H-pyrazole-1-acetic acid]
> 30	COC(=O)Cn1nc(C=Cc2cc(C(C)(C)C)c(O)c(C(C)(C)C)c2)cc1C [Example 10G-1]
> 30	Cc1cc(C=Cc2cc(Cl)cc(Cl)c2O)on1 [Example 32J, 5-[β-(2'-Hydroxy-3',5'-dichlorophenyl)ethenyl]-3-methylisoxazole]
> 25	COC(=O)C(=Cc1cc(OC)c(O)c(OC)c1)c1cc(C)no1 [Example 40, 5-[α-Carbomethoxy-β-(4'-hydroxy-3',5'-dimethoxyphenyl)ethenyl]-3-methylisoxazole]
> 25	COC(=O)Cn1nc(C)cc1C=Cc1ccc(O)c(OC)c1 [Example 10I, 5-[β-(4'-Hydroxy-3'-methoxyphenyl)ethenyl]-3-methyl-1H-pyrazole-1-acetic acid methyl ester]
